Assay results as given in patent publication US10695337B2, “Piperidin-4-yl azetidine derivatives as JAK1 inhibitors” (Incyte Corporation, priority 2010, dated 2020).

molecular target: human JAK1 (a.a. 837-1142); assay: In vitro JAK kinase assay (HTRF, phosphorylation of a biotinylated peptide), JAK1; assay type: biochemical; settings: measured at 1 mM ATP; JAK2 IC50 / JAK1 IC50
Outline: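 N-terminal His-tagged catalytic domains, baculovirus-expressed in insect cells, phosphorylated a biotinylated peptide for 1 hr at room temperature. EDTA stop was followed by SA-APC and Eu-Py20 antibody for 40 minutes, with phosphopeptide read by HTRF.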

Row | Compound | IC50 Ratio JAK2/JAK1
1 | N#CCC1(n2cc(-c3ncnc4[nH]ccc34)cn2)CN(C2CCN(C(=O)c3sc4cccc(F)c4c3Cl)CC2)C1 [Example 92, {1-{1-[(3-chloro-4-fluoro-1-benzothien-2-yl)carbonyl]piperidin-4-yl}-3-[4-(7H-pyrrolo[2,3-d]pyrimidin-4-yl)-1H-pyrazol-1-yl]azetidin-3-yl}acetonitrile] | 2.8
2 | N#CCC1(n2cc(-c3ncnc4[nH]ccc34)cn2)CN(C2CCN(C(=O)c3cc4cccc(C(F)(F)F)c4s3)CC2)C1 [Example 95, [3-[4-(7H-pyrrolo[2,3-d]pyrimidin-4-yl)-1H-pyrazol-1-yl]-1-(1-{[7-(trifluoromethyl)-1-benzothien-2-yl]carbonyl}piperidin-4-yl)azetidin-3-yl]acetonitrile] | 2.7
3 | N#CCC1(n2cc(-c3ncnc4[nH]ccc34)cn2)CN(C2CCN(C(=O)c3csc4ccccc34)CC2)C1 [Example 96, {1-[1-(1-benzothien-3-ylcarbonyl)piperidin-4-yl]-3-[4-(7H-pyrrolo[2,3-d]pyrimidin-4-yl)-1H-pyrazol-1-yl]azetidin-3-yl} acetonitrile] | 0.5
4 | N#CCC1(n2cc(-c3ncnc4[nH]ccc34)cn2)CN(C2CCN(C(=O)C3CCc4ccccc4C3)CC2)C1 (centres unmarked) [Example 97, {3-[4-(7H-pyrrolo[2,3-d]pyrimidin-4-yl)-1H-pyrazol-1-yl]-1-[1-(1,2,3,4-tetrahydronaphthalen-2-ylcarbonyl)piperidin-4-yl]azetidin-3-yl}acetonitrile] | 2.2
5 | N#CCC1(n2cc(-c3ncnc4[nH]ccc34)cn2)CN(C2CCN(C(=O)C3CCC(C(F)(F)F)CC3)CC2)C1 (centres unmarked) [Example 98, [3-[4-(7H-pyrrolo[2,3-d]pyrimidin-4-yl)-1H-pyrazol-1-yl]-1-(1-{[4-(trifluoromethyl)cyclohexyl]carbonyl}piperidin-4-yl)azetidin-3-yl] acetonitrile] | 3.7
6 | N#CCC1(n2cc(-c3ncnc4[nH]ccc34)cn2)CN(C2CCN(C(=O)C3CCC(c4ccc(Cl)cc4)CC3)CC2)C1 (centres unmarked) [Example 105, {1-(1-{[4-(4-chlorophenyl)cyclohexyl]carbonyl}piperidin-4-yl)-3-[4-(7H-pyrrolo[2,3-d]pyrimidin-4-yl)-1H-pyrazol-1-yl]azetidin-3-yl}acetonitrile] | 7.2
7 | N#CCC1(n2cc(-c3ncnc4[nH]ccc34)cn2)CN(C2CCN(C(=O)Cc3ccccc3)CC2)C1 [Example 109, {1-[1-(phenylacetyl)piperidin-4-yl]-3-[4-(7H-pyrrolo[2,3-d]pyrimidin-4-yl)-1H-pyrazol-1-yl]azetidin-3-yl} acetonitrile] | 1.1
8 | N#CCC1(n2cc(-c3ncnc4[nH]ccc34)cn2)CN(C2CCN(C(=O)C3(c4ccc(Cl)cc4)CC3)CC2)C1 [Example 111, {1-(1-{[1-(4-chlorophenyl)cyclopropyl]carbonyl}piperidin-4-yl)-3-[4-(7H-pyrrolo [2,3-d]pyrimidin-4-yl)-1H-pyrazol-1-yl]azetidin-3-yl}acetonitrile] | 2.6
9 | N#CCC1(n2cc(-c3ncnc4[nH]ccc34)cn2)CN(C2CCN(C(=O)Cc3c(Cl)cccc3Cl)CC2)C1 [Example 112, {1-{1-[(2,6-dichlorophenyl)acetyl]piperidin-4-yl}-3-[4-(7H-pyrrolo[2,3-d]pyrimidin-4-yl)-1H-pyrazol-1-yl]azetidin-3-yl} acetonitrile] | 8.2
10 | N#CCC1(n2cc(-c3ncnc4[nH]ccc34)cn2)CN(C2CCN(C(=O)c3ccc(-c4ccccc4)cc3)CC2)C1 [Example 114, {1-[1-(biphenyl-4-ylcarbonyl)piperidin-4-yl]-3-[4-(7H-pyrrolo[2,3-d]pyrimidin-4-yl)-1H-pyrazol-1-yl]azetidin-3-yl}acetonitrile] | 1.5
11 | N#CCC1(n2cc(-c3ncnc4[nH]ccc34)cn2)CN(C2CCN(C(=O)c3ccc(-c4ccncc4)c(F)c3)CC2)C1 [Example 117, {1-[1-(3-fluoro-4-pyridin-4-ylbenzoyl)piperidin-4-yl]-3-[4-(7H-pyrrolo[2,3-d]pyrimidin-4-yl)-1H-pyrazol-1-yl]azetidin-3-yl} acetonitrile] | 10.0
12 | N#CCC1(n2cc(-c3ncnc4[nH]ccc34)cn2)CN(C2CCN(C(=O)c3ccc(-c4cccc(C#N)c4)c(F)c3)CC2)C1 [Example 125, 4′-[(4-{3-(cyanomethyl)-3-[4-(7H-pyrrolo[2,3-d]pyrimidin-4-yl)-1H-pyrazol-1-yl]azetidin-1-yl}piperidin-1-yl)carbonyl]-2′-fluorobiphenyl-3-carbonitrile] | 8.1
13 | N#CCC1(n2cc(-c3ncnc4[nH]ccc34)cn2)CN(C2CCN(C(=O)c3ccc(-c4ccc(C#N)cc4)cc3)CC2)C1 [Example 126, 4′-[(4-{3-(cyanomethyl)-3-[4-(7H-pyrrolo[2,3-d]pyrimidin-4-yl)-1H-pyrazol-1-yl]azetidin-1-yl}piperidin-1-yl)carbonyl]biphenyl-4-carbonitrile] | 6.3
14 | N#CCC1(n2cc(-c3ncnc4[nH]ccc34)cn2)CN(C2CCN(C(=O)c3ccc(-c4cc(F)cc(C#N)c4)c(F)c3)CC2)C1 [Example 128, 4′-[(4-{3-(cyanomethyl)-3-[4-(7H-pyrrolo[2,3-d]pyrimidin-4-yl)-1H-pyrazol-1-yl]azetidin-1-yl}piperidin-1-yl)carbonyl]-2′,5-difluorobiphenyl-3-carbonitrile] | 3.5
15 | N#CCC1(n2cc(-c3ncnc4[nH]ccc34)cn2)CN(C2CCN(C(=O)c3ccc(-c4cccc5ncccc45)c(F)c3)CC2)C1 [Example 129, {1-[1-(3-fluoro-4-quinolin-5-ylbenzoyl)piperidin-4-yl]-3-[4-(7H-pyrrolo[2,3-d]pyrimidin-4-yl)-1H-pyrazol-1-yl]azetidin-3-yl} acetonitrile] | 7.9
16 | N#CCC1(n2cc(-c3ncnc4[nH]ccc34)cn2)CN(C2CCN(C(=O)c3ccc(-c4cccc5cnccc45)c(F)c3)CC2)C1 [Example 130, {1-[1-(3-fluoro-4-isoquinolin-5-ylbenzoyl)piperidin-4-yl]-3-[4-(7H-pyrrolo[2,3-d]pyrimidin-4-yl)-1H-pyrazol-1-yl]azetidin-3-yl}acetonitrile] | 7.1

Results, then the molecule that gave them:

Row | IC50 Ratio JAK2/JAK1 | Compound
17 | 1.5 | N#CCC1(n2cc(-c3ncnc4[nH]ccc34)cn2)CN(C2CCN(C(=O)c3cc4c(C(F)(F)F)cccc4s3)CC2)C1 [Example 93, [3-[4-(7H-pyrrolo[2,3-d]pyrimidin-4-yl)-1H-pyrazol-1-yl]-1-(1-{[4-(trifluoromethyl)-1-benzothien-2-yl]carbonyl}piperidin-4-yl)azetidin-3-yl]acetonitrile]
18 | 1.0 | N#CCC1(n2cc(-c3ncnc4[nH]ccc34)cn2)CN(C2CCN(C(=O)c3cc4ccc(C(F)(F)F)cc4s3)CC2)C1 [Example 94, [3-[4-(7H-pyrrolo[2,3-d]pyrimidin-4-yl)-1H-pyrazol-1-yl]-1-(1-{[6-(trifluoromethyl)-1-benzothien-2-yl]carbonyl}piperidin-4-yl)azetidin-3-yl]acetonitrile]
19 | 6.6 | N#CCC1(n2cc(-c3ncnc4[nH]ccc34)cn2)CN(C2CCN(C(=O)C3CCC(F)(F)CC3)CC2)C1 [Example 100, {1-{1-[(4,4-difluorocyclohexyl)carbonyl]piperidin-4-yl}-3-[4-(7H-pyrrolo[2,3-d]pyrimidin-4-yl)-1H-pyrazol-1-yl]azetidin-3-yl}acetonitrile]
20 | 8.3 | N#CCC1(n2cc(-c3ncnc4[nH]ccc34)cn2)CN(C2CCN(C(=O)C3CCCC3)CC2)C1 [Example 101, {1-[1-(cyclopentylcarbonyl)piperidin-4-yl]-3-[4-(7H-pyrrolo[2,3-d]pyrimidin-4-yl)-1H-pyrazol-1-yl]azetidin-3-yl}acetonitrile]
21 | 1.6 | N#CCC1(n2cc(-c3ncnc4[nH]ccc34)cn2)CN(C2CCN(C(=O)C3(c4ccccc4)CC3)CC2)C1 [Example 110, {1-{1-[(1-phenylcyclopropyl)carbonyl]piperidin-4-yl}-3-[4-(7H-pyrrolo[2,3-d]pyrimidin-4-yl)-1H-pyrazol-1-yl]azetidin-3-yl}acetonitrile]
22 | 4.2 | Cc1cc(C)c(CC(=O)N2CCC(N3CC(CC#N)(n4cc(-c5ncnc6[nH]ccc56)cn4)C3)CC2)c(C)c1 [Example 113, {1-[1-(mesitylacetyl)piperidin-4-yl]-3-[4-(7H-pyrrolo[2,3-d]pyrimidin-4-yl)-1H-pyrazol-1-yl]azetidin-3-yl} acetonitrile]
23 | 14.0 | N#CCC1(n2cc(-c3ncnc4[nH]ccc34)cn2)CN(C2CCN(C(=O)c3ccc(-c4ccc(C#N)c(F)c4)c(F)c3)CC2)C1 [Example 119, 4′-[(4-{3-(cyanomethyl)-3-[4-(7H-pyrrolo[2,3-d]pyrimidin-4-yl)-1H-pyrazol-1-yl]azetidin-1-yl}piperidin-1-yl)carbonyl]-2′,3-difluorobiphenyl-4-carbonitrile]
24 | 3.8 | N#CCC1(n2cc(-c3ncnc4[nH]ccc34)cn2)CN(C2CCN(C(=O)c3ccc(-c4cccnc4)c(F)c3)CC2)C1 [Example 123, {1-[1-(3-fluoro-4-pyridin-3-ylbenzoyl)piperidin-4-yl]-3-[4-(7H-pyrrolo[2,3-d]pyrimidin-4-yl)-1H-pyrazol-1-yl]azetidin-3-yl} acetonitrile]
25 | 8.4 | N#CCC1(n2cc(-c3ncnc4[nH]ccc34)cn2)CN(C2CCN(C(=O)c3ccc(-c4ccccc4C#N)c(F)c3)CC2)C1 [Example 124, 4′-[(4-{3-(cyanomethyl)-3-[4-(7H-pyrrolo[2,3-d]pyrimidin-4-yl)-1H-pyrazol-1-yl]azetidin-1-yl}piperidin-1-yl)carbonyl]-2′-fluorobiphenyl-2-carbonitrile]
26 | 4.3 | N#CCC1(n2cc(-c3ncnc4[nH]ccc34)cn2)CN(C2CCN(C(=O)c3ccc(-c4ccc(F)c(F)c4)c(F)c3)CC2)C1 [Example 127, (3-[4-(7H-pyrrolo[2,3-d]pyrimidin-4-yl)-1H-pyrazol-1-yl]-1-{1-[(2,3′,4′-trifluorobiphenyl-4-yl)carbonyl]piperidin-4-yl}azetidin-3-yl) acetonitrile]
